Consider twelve compounds from patent US20250230226A1, “PLXDC1/PLXDC2 ACTIVATORS AND THEIR USE IN THE TREATMENT OF BLOOD VESSEL DISORDERS” (THE REGENTS OF THE UNIVERSITY OF CALIFORNIA, priority 2019, published 2025).

Assay [1] deals with CT26.CL25 colon cancer tumor endothelial cells. Description: Colon CT26 ex vivo model of tumor angiogenesis. The note with it: for 48 hrs (morphology observations after 48 hours): Conc. 40 μm; for cytotoxicity at 40 µM: Mus musculus, Endothelial cell, 48 h, read-out: Cell death. The assay is classed as cell-based, mouse. How it is done:
An ex vivo tumor angiogenesis model was developed to test the efficacy of anti-cancer candidate agents. The following protocol describes the Ex Vivo Tumor Angiogenesis Model.
• 1. The day before the experiment, all necessary tools were sprayed with 70% ethanol and sterilized under UV light overnight, including blade, dissecting and micro-dissecting scissors and […]. 24-well dishes were placed at 4° C. to pre-chill plates and Matrigel was thawed, 24 hours before tumor dissection. • 2. 70% ethanol was sprayed on working bench. Two sterile petri dishes were prepared with 10 ml sterile PBS. The following steps 3 and 4 are necessary for mouse tumor models. For fresh human tumor, steps 3 and 4 are skipped. • 3. The tumor-bearing mice were euthanized. 70% ethanol was sprayed on the mouse and the tumor was removed using sterilized dissecting tools (avoid the fur). The tumor was rinsed in petri dish with sterile PBS to remove ethanol and fur. The tumor was transferred to a new petri dish with PBS for dissection. The dish is placed on ice. • 4. Pre-chilled sterile pipet tips were used to seed regular Matrigel in 24 well plates on ice. Matrigel (30 μl) was dropped in the middle of each well without touching the edge of the well (avoid introducing bubbles if possible). • 5. The tumor was cut in halves using the sterile blade. Healthy tumor tissue that is not necrotic and is within the tumor capsule was identified and isolated. The healthy tumor tissue was cut into small pieces. For instance, a suitable size for the tumor tissue is 0.5 mm (H)×0.5 mm (L)×0.3 mm (D) with a total volume of 0.075 mm^3. • 6. Each tumor piece was gently transferred and embedded in the Matrigel drop in the 24-well plate. The embedded piece was placed in the bottom and middle of each Matrigel drop. The plate was kept on ice all the time. • 7. After seeding the tumor pieces, plates were incubated in a 37° C. cell culture incubator without medium for 10 minutes in order for the Matrigel to solidify. • 8. Endothelial Growth Medium (0.5 ml) was added to each well and incubated at 37° C. with 5% CO2. Treatment was not added until the new endothelial cells was grown out of the tumor or were larger than 3 mm in diameter. This usually takes 4 days for the LL2 Lewis lung cancer model and 7 days for the CT26 colon cancer model. For human tumor models, the growth time is typically 2-3 weeks, depending on the tumor type. Media was changed every 4 days during prolonged culture. Typically, when the tumor tissue grows to 2 mm in diameter, it was good for drug testing. A size of about 3 mm in diameter can make visualization easier. • 9. When the assay was ready to be analyzed for cell death (e.g., 48 hours after drug addition), the dye mixture was prepared by mixing 6 μl of green dye to stain live cells (5 mg/ml Fluorescein diacetate or FDA in DMSO) with 30 μl of red dye (2.5 mg/ml Propidium iodide or PI in PBS) to stain dead cells in an Eppendorf tube. The FDA dye needs to be stored frozen in a −20° C. freezer because it has a labile ester bond. • 10. 1 μl of the dye mixture was added to each well of the 24-well dish. It is usually preferred to do one 24-well dish at a time given the amount of time needed to take pictures (the green dye is not as stable in the cells in the long term). • 11. The dish was gently rocked a few times to mix the dye with the media in the wells and incubate the dish at 37° C. for 10 min (too long incubation can make the green signal too intense). • 12. Each well was washed with 0.5 ml of sterile PBS and then 0.5 ml of phenol red free SFM was added to each well. Alternatively 0.5 ml of regular Endothelial Cell Growth Media can be added to each well if this well needs to be continuously maintained after the experiment. • 13. An inverted microscope using the 2× objective lens was used to observe morphological changes in the experimental wells. • 14. […]

Assay [2] deals with LL/2 lung cancer tumor endothelial cells. Description: Lung LL2 ex vivo model of tumor angiogenesis. The assay is classed as cell-based, mouse. As to conditions: for Cell death / 48 hrs (morphology observations): 40 μm; for Cell death: drug treatment for two days, ratio of red area to total endothelial cell area; for 48 hrs (morphology observations): LL/2 tumor endothelial cells; for cytotoxicity at 40 µM: Mus musculus, Endothelial cell, 48 h, read-out: Cell death. Summed up: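 Live/dead imaging with FDA and PI, taken e.g. 48 h post-drug under fixed channel settings, measures treatment effects on endothelial cells sprouting from Lewis lung tumor explants. Explants were seeded in Matrigel drops and grown ~4 days in endothelial growth medium, 37 °C, 5% CO2, before dosing.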

As for `CCc1ccc(S(=O)(=O)c2cnc3ccc(CC#N)cc3c2N2CCC(N3CCCCC3)CC2)cc1` [Compound 55], in assay [1], the “48 hrs (morphology observations after 48 hours)” value is on record as 0 and the cytotoxicity at 40 µM stood at 50%. In addition, the Cell death in assay [2] came out at 70%.
For `COc1ccc(S(=O)(=O)c2cnc3ccc(OC(F)(F)F)cc3c2N2CCC(N3CCCCC3)CC2)cc1OC` [Compound 56], in assay [1], the “48 hrs (morphology observations after 48 hours)” value was determined as 0 and the cytotoxicity at 40 µM worked out at 30%. In addition, in assay [2], the “48 hrs (morphology observations)” value was “* (50% or less of cells vesicularize in cell shape)” and the Cell death came out at 20%.
Consider `COc1ccc(S(=O)(=O)c2cnc3ccc(OC(F)(F)F)cc3c2N2CCCN(C)CC2)cc1OC` [Compound 57], for which, in assay [1], the “48 hrs (morphology observations after 48 hours)” value was “* (50% or less of cells vesicularize in cell shape)” and the cytotoxicity at 40 µM was 60%. Further, in assay [2], the “48 hrs (morphology observations)” value is 0 and the Cell death amounted to 40%.
With `COc1ccc(S(=O)(=O)c2cnc3ccc(OC(F)(F)F)cc3c2N2CCC(O)CC2)cc1OC` [Compound 58], in assay [1], the “48 hrs (morphology observations after 48 hours)” value is given as “* (50% or less of cells vesicularize in cell shape)” and the cytotoxicity at 40 µM is 50%. In addition, in assay [2], the “48 hrs (morphology observations)” value worked out at 0 and the cytotoxicity at 40 µM is 50%.
Take `O=[N+]([O-])c1ccc(S(=O)(=O)c2cnc3ccc(OC(F)(F)F)cc3c2N2CCC(N3CCCCC3)CC2)cc1` [Compound 59]: in assay [1], the “48 hrs (morphology observations after 48 hours)” value came out at 0 and the cytotoxicity at 40 µM was determined as 50%. For the same compound, the Cell death in assay [2] is listed as 40%.
Take `O=[N+]([O-])c1ccc(S(=O)(=O)c2cnc3ccc(OC(F)(F)F)cc3c2N2CCC(O)CC2)cc1` [Compound 61]: in assay [1], the “48 hrs (morphology observations after 48 hours)” value turned out to be 0 and the cytotoxicity at 40 µM worked out at 20%. In assay [2], the Cell death is reported as 50%.
On to `CCOC(=O)c1ccc2ncc(S(=O)(=O)c3ccc(CC)cc3)c(N3CCC(O)CC3)c2c1` [Compound 62], for which, in assay [1], the “48 hrs (morphology observations after 48 hours)” value was “** (more than 50% but less than 100% of endothelial cells vesicularize in cell shape)” and the cytotoxicity at 40 µM is 70%. Also, in assay [2], the “48 hrs (morphology observations)” value is “*** (more than 50% but less than 100% of endothelial cells vesicularize in cell shape)” and the Cell death stood at 30%.
Regarding `CCOC(=O)c1ccc2ncc(S(=O)(=O)c3ccc(CC)cc3)c(N3CCCN(C)CC3)c2c1` [Compound 63], in assay [1], the “48 hrs (morphology observations after 48 hours)” value is on record as “*** (100% of endothelial cells vesicularize in cell shape)” and the cytotoxicity at 40 µM turned out to be 70%. For the same compound, the Cell death in assay [2] stood at 50%.
Consider `CCOC(=O)c1ccc2ncc(S(=O)(=O)c3ccc(CC)cc3)c(N3CCC(N4CCCCC4)CC3)c2c1` [Compound 64], for which, in assay [1], the “48 hrs (morphology observations after 48 hours)” value is “*** (100% of endothelial cells vesicularize in cell shape)” and the cytotoxicity at 40 µM turned out to be 100%. For the same compound, in assay [2], the “48 hrs (morphology observations)” value is on record as “*** (more than 50% but less than 100% of endothelial cells vesicularize in cell shape)” and the cytotoxicity at 40 µM was 100%.
`CCc1ccc(S(=O)(=O)c2cnc3ccc(C(=O)O)cc3c2N2CCC(O)CC2)cc1` [Compound 65]: in assay [1], the “48 hrs (morphology observations after 48 hours)” value amounted to 0 and the cytotoxicity at 40 µM was found to be 0%. Also, the Cell death in assay [2] is reported as 10%.
`CCc1ccc(S(=O)(=O)c2cnc3ccc(C(=O)O)cc3c2N2CCCN(C)CC2)cc1` [Compound 66]: in assay [1], the “48 hrs (morphology observations after 48 hours)” value stood at 0 and the cytotoxicity at 40 µM turned out to be 0%. The Cell death in assay [2] is reported as 10%.
On the same counts, the results for `CCc1ccc(S(=O)(=O)c2cnc3ccc(C(=O)O)cc3c2N2CCC(N3CCCCC3)CC2)cc1` [Compound 67] are 0, 0% and 10%.
